ChEMBL document CHEMBL4819103, “Discovery of selective fragment-sized immunoproteasome inhibitors” (Eur J Med Chem, 2021)
Blank lines part the entries; values can stand above or below the molecule they belong to.

Legend:
[1] = biological target: T1, Proteasome subunit beta type-8 (Homo sapiens) (UniProt P28062); assay: Inhibition of human chymotrypsin-like beta 5i subunit of iCP assessed as residual activity using suc-LLVY-AMC as flurogenic substrate at 150 uM for 90 mins by fluorescence-based assay
T1 sequence (whole entry): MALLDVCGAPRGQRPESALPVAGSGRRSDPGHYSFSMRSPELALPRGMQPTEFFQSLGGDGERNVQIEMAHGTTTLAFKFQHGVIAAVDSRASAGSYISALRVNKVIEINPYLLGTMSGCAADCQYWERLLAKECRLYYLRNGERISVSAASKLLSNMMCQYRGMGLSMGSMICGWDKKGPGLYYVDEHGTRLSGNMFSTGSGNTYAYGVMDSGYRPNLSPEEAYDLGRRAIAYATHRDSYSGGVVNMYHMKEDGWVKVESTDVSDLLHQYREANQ

[2] = biological target: T1, Proteasome subunit beta type-8 (Homo sapiens); assay: Inhibition of human chymotrypsin-like beta 5i subunit of iCP assessed as residual activity using suc-LLVY-AMC as flurogenic substrate at 100 uM for 90 mins by fluorescence-based assay
[3] = Glutathione reactivity of compound at pH 8 measured by HPLC-MS assay; assay type: physicochemical
[4] = Glutathione reactivity of compound at pH 7.5 measured by HPLC-MS assay; assay type: physicochemical
[5] = biological target: T2, Proteasome subunit beta type-8 (Homo sapiens, UniProt P28062); assay: Inhibition of human chymotrypsin-like beta 5i subunit of iCP using suc-LLVY-AMC as flurogenic substrate for 90 mins by fluorescence-based assay
T2 sequence (P28062 whole entry): T1 sequence (whole entry)

[6] = Glutathione reactivity of compound at pH 8.5 measured by HPLC-MS assay; assay type: physicochemical
[7] = Glutathione reactivity of compound at pH 9 measured by HPLC-MS assay; assay type: physicochemical
[8] = biological target: T3, Proteasome Macropain subunit MB1 (Homo sapiens) (UniProt P28074); assay: Inhibition of beta 5 chymotrypsin-like activity (unknown origin) at 100 uM using Suc-LLVY-AMC as substrate for 90 mins by fluorescence based assay; design: scale not given: the % may be the effect or the level left
T3 sequence (whole entry): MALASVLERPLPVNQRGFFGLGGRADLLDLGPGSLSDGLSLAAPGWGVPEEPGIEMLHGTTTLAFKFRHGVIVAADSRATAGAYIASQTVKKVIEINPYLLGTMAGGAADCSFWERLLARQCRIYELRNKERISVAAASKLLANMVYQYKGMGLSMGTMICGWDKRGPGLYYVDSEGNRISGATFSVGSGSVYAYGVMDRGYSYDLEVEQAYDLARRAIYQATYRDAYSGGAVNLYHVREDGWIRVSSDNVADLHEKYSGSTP

[9] = Thiol reactivity of the compound assessed as TNB2-depletion at 200 uM measured upto 24 hrs by TNB2-depletion assay; assay type: physicochemical
[10] = biological target: T1, Proteasome subunit beta type-8 (Homo sapiens); assay: Inhibition of human chymotrypsin-like beta 5i subunit of iCP assessed as residual activity using suc-LLVY-AMC as flurogenic substrate at 10 uM for 90 mins by fluorescence-based assay
[11] = biological target: T4, Proteasome Macropain subunit MB1 (Homo sapiens, UniProt P28074); assay: Inhibition of beta 5 chymotrypsin-like activity (unknown origin) using Suc-LLVY-AMC as substrate for 90 mins by fluorescence based assay
T4 sequence (P28074 whole entry): T3 sequence (whole entry)

SMILES: Cn1c(=S)[nH]c2c(Cl)cccc21
Activity [1]: 50%

SMILES: C=CC(=O)Nc1nc2ccccc2n1C
Activity [2]: 83%

SMILES: O=[N+]([O-])c1ccc2sc(=S)[nH]c2c1
Drug metabolism [3]: Metabolite_Notdetected | Drug metabolism [4]: Metabolite_Notdetected | Drug metabolism [6]: Metabolite_Notdetected | Activity [2]: 58% | Drug metabolism [7]: Metabolite_Notdetected

SMILES: N#Cc1nc2c(Cl)cccc2s1
IC50 [5]: 85 µM

SMILES: S=c1[nH]c2cccc(Br)c2[nH]1
Activity [2]: 87%

SMILES: S=c1[nH]c2cccc(Cl)c2o1
Drug metabolism [3]: Metabolite_Notdetected | Drug metabolism [4]: Metabolite_Notdetected | IC50 [5]: 16 µM | Drug metabolism [6]: Metabolite_Notdetected | Activity [8]: 94% | Drug metabolism [9]: Metabolite_Detected | Drug metabolism [7]: Metabolite_Notdetected

SMILES: N#Cc1nc2cc(Cl)ccc2o1
IC50 [5]: 67 µM | Activity [8]: 101%

SMILES: Nc1cccc2[nH]c(=S)oc12
IC50 [5]: 79 µM

SMILES: Cn1c(S)nc2ccccc21
IC50 [5]: 94 µM | Activity [8]: 91% | Drug metabolism [9]: Metabolite_Notdetected

SMILES: Cn1c(=S)[nH]c2ccc(NC(=O)[C@H]3CCCN3)cc21
IC50 [5]: 109 µM

SMILES: Sc1nc2cc(Cl)ccc2o1
Drug metabolism [3]: Metabolite_Notdetected | Drug metabolism [4]: Metabolite_Notdetected | IC50 [5]: 96 µM | Drug metabolism [6]: Metabolite_Notdetected | Drug metabolism [7]: Metabolite_Notdetected

SMILES: COc1ccc2sc(=S)[nH]c2c1
IC50 [5]: 7.2 µM

SMILES: COc1ccc2[nH]c(=S)sc2c1
IC50 [5]: 13 µM

SMILES: N#Cc1nc2ccccc2o1
IC50 [5]: 83 µM | Activity [8]: 82%

SMILES: O=C(Nc1ccc2[nH]c(=S)sc2c1)[C@H]1CCCN1
IC50 [5]: 95 µM

SMILES: CCOc1ccc2nc(S)sc2c1
IC50 [5]: 9 µM

SMILES: Cc1ccc2sc(=S)[nH]c2c1
Activity [2]: 56%

SMILES: Cc1ccc2[nH]c(=S)[nH]c2c1
Activity [10]: 95%

SMILES: Nc1ccc2nc(S)sc2c1
Activity [2]: 80%

SMILES: S=c1[nH]c2cccc(Cl)c2[nH]1
IC50 [5]: 60 µM

SMILES: Sc1nc2ccccc2o1
IC50 [5]: 17 µM | Activity [8]: 116% | Drug metabolism [9]: Metabolite_Detected

SMILES: O=C(CCl)Nc1nc2ccccc2s1
Activity [2]: 73%

SMILES: C=CC(=O)Nc1nc2ccccc2s1
Activity [2]: 44%

SMILES: Cn1c(S)nc2ccc(Cl)cc21
Drug metabolism [3]: Metabolite_Notdetected | Drug metabolism [4]: Metabolite_Notdetected | IC50 [5]: 4.2 µM | Drug metabolism [6]: Metabolite_Notdetected | Activity [8]: 94% | Drug metabolism [9]: Metabolite_Detected | Drug metabolism [7]: Metabolite_Notdetected

SMILES: N#Cc1nc2cccc(Cl)c2[nH]1
IC50 [5]: 75 µM | Activity [8]: 82%

SMILES: N#Cc1nc2cccc(Cl)c2s1
IC50 [5]: 18 µM | Activity [8]: 72%

SMILES: Oc1cccc2oc(S)nc12
IC50 [5]: 4.1 µM | Activity [8]: 87% | Drug metabolism [9]: Metabolite_Detected

SMILES: Sc1nc2cc(Cl)ccc2s1
IC50 [5]: 32 µM

SMILES: S=c1[nH]c2cccc(Br)c2s1
IC50 [5]: 11 µM | Activity [8]: 84% | Drug metabolism [9]: Metabolite_Detected

SMILES: Cn1c(C#N)nc2ccc(Cl)cc21
Activity [2]: 50%

SMILES: COc1ccc2[nH]c(S)nc2c1
Activity [10]: 97%

SMILES: N#Cc1nc2cccc(Cl)c2o1
IC50 [5]: 10 µM | IC50 [11]: 93 µM

SMILES: Cn1c(=S)[nH]c2cccc(Cl)c21
Drug metabolism [3]: Metabolite_Notdetected | Drug metabolism [4]: Metabolite_Notdetected | IC50 [5]: 1.8 µM | Drug metabolism [6]: Metabolite_Notdetected | Activity [8]: 99% | Drug metabolism [9]: Metabolite_Detected | Drug metabolism [7]: Metabolite_Notdetected

SMILES: Cc1cccc2[nH]c(=S)[nH]c12
Activity [10]: 84%

SMILES: Cn1c(=S)[nH]c2ccc([N+](=O)[O-])cc21
Activity [2]: 52%

SMILES: N#Cc1cccc(-c2cccc3[nH]c(=S)sc23)c1
Activity [2]: 70%

SMILES: S=c1[nH]c2c(Cl)cccc2s1
Drug metabolism [3]: Metabolite_Notdetected | Drug metabolism [4]: Metabolite_Notdetected | IC50 [5]: 43 µM | Drug metabolism [6]: Metabolite_Notdetected | Drug metabolism [7]: Metabolite_Notdetected

SMILES: CCOc1ccc2[nH]c(S)nc2c1
Activity [10]: 80% | Activity [8]: 95% | Drug metabolism [9]: Metabolite_Notdetected

SMILES: C=CS(=O)(=O)c1nc2ccccc2s1
Activity [2]: 40%

SMILES: Cn1c(=S)[nH]c2ccc(N)cc21
Activity [2]: 67%

SMILES: Cn1c(=S)[nH]c2cccc(N)c21
Activity [2]: 63%

SMILES: CS(=O)(=O)c1nc2ccccc2s1
Activity [2]: 88%

SMILES: Sc1nc2cc(Cl)ccc2[nH]1
Drug metabolism [3]: Metabolite_Notdetected | Drug metabolism [4]: Metabolite_Notdetected | IC50 [5]: 62 µM | Drug metabolism [6]: Metabolite_Notdetected | Activity [8]: 98% | Drug metabolism [9]: Metabolite_Notdetected | Drug metabolism [7]: Metabolite_Notdetected

SMILES: Sc1nc2ccccc2s1 [2-MERCAPTOBENZOTHIAZOLE]
IC50 [5]: 13 µM | Activity [8]: 85% | Drug metabolism [9]: Metabolite_Detected

SMILES: N#Cc1nc2ccc(Cl)cc2[nH]1
IC50 [5]: 28 µM | Activity [8]: 71%

SMILES: Cn1c(C#N)nc2cccc(Cl)c21
IC50 [5]: 20 µM | Activity [8]: 89%

SMILES: N#Cc1nc2ccccc2[nH]1
Activity [2]: 89%

SMILES: Cn1c(C#N)nc2ccccc21
Activity [2]: 99%

SMILES: O=[N+]([O-])c1ccc2nc(S)sc2c1
Drug metabolism [3]: Metabolite_Notdetected | Drug metabolism [4]: Metabolite_Notdetected | Drug metabolism [6]: Metabolite_Notdetected | Activity [2]: 69% | Drug metabolism [7]: Metabolite_Notdetected

SMILES: S=c1[nH]c2cccc(Cl)c2s1
Drug metabolism [3]: Metabolite_Notdetected | Drug metabolism [4]: Metabolite_Notdetected | IC50 [5]: 9.7 µM | Drug metabolism [6]: Metabolite_Notdetected | Activity [8]: 59% | Drug metabolism [9]: Metabolite_Detected | Drug metabolism [7]: Metabolite_Notdetected

SMILES: N#Cc1nc2ccc(Cl)cc2s1
Activity [2]: 58%

SMILES: Nc1ccc2[nH]c(S)nc2c1
Activity [10]: 49%

SMILES: Sc1nc2ccccc2[nH]1 [2-MERCAPTOBENZIMIDAZOLE]
IC50 [5]: 114 µM | Activity [8]: 100% | Drug metabolism [9]: Metabolite_Notdetected

SMILES: N#Cc1nc2ccccc2s1
Activity [2]: 61%

Now from value to molecule:

Drug metabolism [3]: Metabolite_Notdetected | Drug metabolism [4]: Metabolite_Notdetected | IC50 [5]: 9 µM | Drug metabolism [6]: Metabolite_Notdetected | Drug metabolism [7]: Metabolite_Notdetected
SMILES: O=[N+]([O-])c1ccc2oc(=S)[nH]c2c1

IC50 [5]: 3 µM
SMILES: COC(=O)c1ccc2[nH]c(=S)oc2c1

Activity [2]: 47%
SMILES: Cn1c(=S)[nH]c2cccc(NC(=O)c3ccccc3)c21

Activity [2]: 99%
SMILES: Cc1ccc2oc(=S)[nH]c2c1

IC50 [5]: 26 µM
SMILES: O=C(CCc1cccnc1)Nc1ccc2[nH]c(=S)sc2c1

IC50 [5]: 81 µM
SMILES: COc1cccc2oc(=S)[nH]c12

IC50 [5]: 15 µM
SMILES: O=C(Cc1cccnc1)Nc1ccc2[nH]c(=S)sc2c1

Activity [2]: 72%
SMILES: Cn1c(=S)[nH]c2ccc(NC(=O)CCc3cccnc3)cc21

Activity [2]: 63%
SMILES: CC(=O)Nc1ccc2[nH]c(=S)oc2c1

Activity [2]: 92%
SMILES: Cn1c(=S)[nH]c2cccc(NC(=O)CCc3cccnc3)c21

Activity [2]: 65%
SMILES: O=C(Nc1ccc2[nH]c(=S)oc2c1)[C@H]1CCCN1

Activity [2]: 59%
SMILES: COc1ccc2oc(=S)[nH]c2c1

Activity [2]: 89%
SMILES: Cn1c(=S)[nH]c2ccc(NC(=O)Cc3cccnc3)cc21

IC50 [5]: 49 µM
SMILES: O=C(Nc1ccc2[nH]c(=S)oc2c1)c1ccccc1

IC50 [5]: 36 µM
SMILES: S=c1[nH]c2c(Cl)cccc2o1

IC50 [5]: 7.1 µM
SMILES: O=C(Nc1ccc2nc(S)sc2c1)c1ccccc1

IC50 [5]: 27 µM
SMILES: Nc1ccc2[nH]c(=S)oc2c1

IC50 [5]: 129 µM
SMILES: O=C(Nc1cccc2[nH]c(=S)oc12)c1ccccc1

Activity [10]: 57%
SMILES: CC(=O)Nc1ccc2[nH]c(=S)[nH]c2c1

IC50 [5]: 156 µM
SMILES: O=C(Cc1cccnc1)Nc1cccc2[nH]c(=S)oc12

IC50 [5]: 149 µM
SMILES: CC(=O)Nc1ccc2[nH]c(=S)n(C)c2c1

IC50 [5]: 130 µM
SMILES: CC(=O)Nc1ccc2[nH]c(=S)sc2c1

Activity [2]: 94%
SMILES: Cn1c(=S)[nH]c2cccc(NC(=O)Cc3cccnc3)c21

Activity [2]: 56%
SMILES: O=C(CCc1cccnc1)Nc1ccc2[nH]c(=S)oc2c1

IC50 [5]: 30 µM | Activity [8]: 92% | Drug metabolism [9]: Metabolite_Detected
SMILES: Cc1ccc2[nH]c(=S)oc2c1

Drug metabolism [3]: Metabolite_Notdetected | Drug metabolism [4]: Metabolite_Notdetected | IC50 [5]: 65 µM | Drug metabolism [6]: Metabolite_Notdetected | Drug metabolism [7]: Metabolite_Notdetected
SMILES: S=c1[nH]c2ccc(Cl)cc2o1

Activity [2]: 54%
SMILES: S=c1[nH]c2cccc(-c3ccccc3)c2s1

Activity [2]: 50%
SMILES: O=C(Cc1cccnc1)Nc1ccc2[nH]c(=S)oc2c1
